Source: US20230235283A1, “CULTURE MEDIUM FOR ESOPHAGEAL SQUAMOUS CELL CARCINOMA EPITHELIAL CELLS, CULTURE METHOD, AND APPLICATION THEREOF” (PRECEDO PHARMACEUTICALS CO., LTD, priority 2020, published 2023)

How the values were obtained:
Format in all cases: cell-based, human
[1] = tested on: primary ESCC tumor cells (No. 0F0061); experiment: Effects of removing single factor or combination of factors from FEM on continuous expansion of primary ESCC cells; details: continuous culture, third passage; FIG. 12 and FIG. 13
Experimental: The culture medium for primary ESCC epithelial cell FEM was prepared in the same method of Example 2. As a control, a basic medium (hereinafter also referred to as “BM”) was prepared using the same method of Example 2. In addition, six other different culture mediums were prepared according to Table 9.
ESCC tissue-originated primary ESCC tumor cells (No. 0F0061) were obtained by using the same method as in Example 1. Then, the primary ESCC tumor cells were inoculated in a Matrigel® (manufactured by BD Biosciences)-coated 24-well plate at a density of 4×10^4 cells/cm^2. 1 mL of the culture medium for primary ESCC epithelial cells (FEM) of the invention was used, which was then placed in a 37° C., 5% CO2 incubator (purchased from Thermo Fisher) for culture.
When the cells in the culture plate grew to cover about 80% of the bottom area, the medium supernatant in the 24-well plate was discarded and 400 μL 0.05% trypsin (purchased from Gibco) was added for cell digestion; the cells were incubated at 37° C. for 10 minutes until the cells were completely digested as observed under the microscope (EVOS M500, Invitrogen); then the digestion was terminated by using 800 μL of DMEM/F12 culture solution containing 5% (v/v) fetal bovine serum, 100 U/mL penicillin, and 100 μg/mL penicillin; the resultant was collected into a 15 mL centrifuge tube and centrifuged at 1500 rpm for 4 minutes, and then the supernatant was discarded. The centrifuged cell sediments were resuspended in the culture medium of the invention and were counted with a flow imaging counter (JIMBIO FIL, Jiangsu Jimbio Technology Co., Ltd.) to obtain the total number of cells. The cells were incubated into another 24-well culture plate coated with extracellular matrix gel at a density of 2×10^4 cells/cm^2 for further culture. The cells were inoculated into the 24-well culture plate coated with extracellular matrix gel at the same density using other seven different mediums for culture.
When the passaged cells grew in the culture plate to cover about 80% of the bottom area of the plate again, the cultured cells were digested, collected and counted according to the above operating method. The cells were inoculated at a density of 2×10^4 cells/cm^2 again and cultured continuously using the respective culture mediums of different compositions.
The following is the formula for calculating the cell population doubling number of primary ESCC epithelial cells under different culture conditions:
Population Doubling (PD)=3.32*log10 (total number of digested cells/the number of cells at initial inoculation), see Chapman et al., Stem Cell Research & Therapy 2014, 5: 60. […]

[2] = tested on: ESCC tumor cells (No. 0F0064); experiment: Effects of different factors added to basic medium BM on proliferation of primary ESCC cells (cell count); details: factor added to BM at concentrations of Table 3; 12 days of culture; FIGS. 1A-1E
Experimental: Extracellular matrix gel (Matrigel®) (manufactured by BD Biosciences) was diluted at 1:100 in serum-free DMEM/F12 medium to prepare an extracellular matrix dilution, which was added to a 48-well culture plate with 500 μl/well to completely cover the bottom of the wells of the culture plate. The resultant was let stand for 1 hour in a 37° C. incubator. After 1 hour, the extracellular matrix dilution was removed to provide a Matrigel-coated plate.
Preparation of basic medium (abbreviated as BM): BM was prepared by adding 0.2 vol. % of Primocin (purchased from Invivogen, with a concentration of 50 mg/mL) to the commercial DMEM/F-12 medium to provide a final concentration of 100 μg/mL.
Next, different kinds and concentrations of additive factors (Table 3) were added to the basic medium (BM), so as to prepare culture mediums for ESCC epithelial cells containing different additive components.
The culture mediums with different components were added at a volume of 500 μl/well to 48-well plates which were coated with extracellular matrix gel (Matrigel). ESCC tumor cells (No. 0F0064) isolated from ESCC tissue according to the same method described in Example 1 were inoculated in a Matrigel-coated 48-well culture plate at a cell density of 2×10^4 cells/cm^2. After surface disinfection, the plate was placed in a 37° C., 5% CO2 incubator (purchased from Thermo Fisher), such that equal numbers of freshly isolated ESCC tumor cells (No. 0F0064) were cultured under different medium formulations. The culture mediums were renewed every 4 days after the start of the culture. After 12 days of culture, cell counts were performed. As an experiment control, the basis medium (BM) without any additive was used. The ordinate in each figure represents the ratio of the number of cells obtained after culture in different mediums to the number of cells obtained after culture in basic medium BM. As shown in the figures, the addition of different concentrations of different factors as shown in Table 3 to BM has different effects on cell proliferation.

[3] = tested on: ESCC tumor cells (Sample No. 0F0065); experiment: Effects of different concentrations of the additive factors in FEM on proliferation of primary ESCC cells; details: factor added back to FEM lacking it; first passage; FIGS. 3A-3H; preferably
Experimental: Extracellular matrix gel (Matrigel®) (manufactured by BD Biosciences) was diluted at 1:100 in serum-free DMEM/F12 medium to prepare an extracellular matrix dilution, which was added to a 48-well culture plate with 200 μl/well to completely cover the bottom of the wells of the culture plate. The resultant was let stand for 1 hour in a 37° C. incubator. After 1 hour, the extracellular matrix dilution was removed to provide a Matrigel-coated plate. […]
ESCC epithelial cells originated from cancer tissue were isolated and obtained from the cancer tissue of an ESCC patient (Sample No. 0F0065) using the same method as in Example 1. Next, ESCC tumor cells originated from cancer tissue were counted with a flow imaging counter (JIMBIO FIL, Jiangsu Jimbio Technology Co., Ltd.) to obtain the total number of cells. […] The centrifuged cell sediments were resuspended in the basic medium BM and were counted with a flow imaging counter (JIMBIO FIL, Jiangsu Jimbio Technology Co., Ltd.) to obtain the total number of cells. […]

Row | Molecule | proliferation effect of cells after removal of the component from FEM [1] | effect on cell proliferation (ratio of number of cells to that in basic medium BM) [2] | amount in the culture medium, preferable (proliferation ratio to control well) [3]
1 | Oc1ccc(-c2nc(-c3ccncc3)c(-c3ccc(F)cc3)[nH]2)cc1 [SB202190] | significantly attenuated | – | –
2 | Cc1cccc(-c2nn(C(=S)Nc3ccccc3)cc2-c2ccnc3ccccc23)n1 [Compound A83-01] | significantly attenuated | – | –
3 | insulin-like growth factor 1: growth factor from Sino Biological | – | promoting effects on cell proliferation | –
4 | CN1C(=O)C(c2c(F)cccc2F)N(C)c2nc(Nc3ccc(S(N)(=O)=O)cc3)ncc21 (stereo not shown) [Compound 1, 4-((7-(2,6-difluorophenyl)-5,8-dimethyl-6-oxo-5,6,7,8-tetrahydropteridin-2-yl)amino)benzsulfamide] | significantly attenuated | promoting effects on cell proliferation | –
5 | C[C@@H](N)[C@H]1CC[C@H](C(=O)Nc2ccncc2)CC1 [Compound Y27632, reference compound] | significantly attenuated | promoting effects on cell proliferation | –
6 | hepatocyte growth factor: growth factor from Sino Biological | – | promoting effects on cell proliferation | 2.5 to 20 ng/mL
7 | epidermal growth factor: growth factor from Sino Biological (NSDSECPLSHDGYCLHDGVCMYIEALDKYACNCVVGYIGERCQYRDLKWWELR; Epidermal growth factor; UniProt P01133 971-1023, looked up) | – | promoting effects on cell proliferation | –
